# From patent US8835466B2, “Synthesis and uses of pyroglutamic acid derivatives” (Prodimed, S.A., priority 2006, dated 2014)
# Columns and labels:
# [1] = test system: Renca cells (renal cell carcinoma); assay: Effect of isomers on in vivo tumour growth in mice challenged with Renca cells (Example 7); design: species or system Balb/c mice; conditions: 260 ng/mouse i.p. days 6, 7, 14
# Excerpt: This assay was made in order to check the effect of each stereoisomer on in vivo tumour growth in mice challenged with Renca cells. Their effect was compared with placebo. The stereoisomers assayed were:
# Renca is a renal cell carcinoma originated in Balb/c mouse strain, and therefore syngeneic in mice with Balb/c genetic background [Melder R J et al., Cancer Immunol. Immunother., 2005, 54:535-547; Felluga B et al., 1969, J. Natl. Cancer Inst. 43:319-333]. Renca is considered a moderate immunogenic tumour and used as suitable model for testing immunointervention approaches [Salup R R, et al., 1992, The Journal of Urology, 147:1120-1123].
# Renca cells (CLS, Eppelheim, Germany) were maintained in vitro by serial passages every 3-4 days. Cultures were performed with RPMI medium medium (RPMI, 10% foetal calf serum, 2 mM L-glutamine, non essential amino acids, 1 mM sodium pyruvate, 20 mM HEPES, 80 μg/mL gentamycin; all of them were purchased from Sigma, St. Louis, Mo., USA) by seeding 5×10^6 cells onto 75 cm^2 culture flasks. Tumour cells collected from 48 hour cultures upon trypsinization (Sigma, St. Louis, Mo., USA) were used as source of Renca cells for the studies described below.
# Each isomer was tested at the dose levels of 260 ng administered on days 6, 7 and 14 after tumour inoculation.
# The treatments were given by intraperitoneal route (i.p.). The volume inoculated was 0.2 mL/animal. This route was chosen because it is the one described in the original method [Pérez S, et al., 2003, Clinical Cancer Research. 9:5776-5785].
# Tumours were established by subcutaneous inoculation in the right hind flank. Mice (Balb/c) were inoculated with 0.2 mL containing 10^5 viable Renca cells. The day of subcutaneous inoculation will be considered Day 0 of the test.
# Mice were observed daily and the tumour size recorded twice a week. This was carried out by measuring two perpendicular diameters (L/W) with a calliper. These measures were used to obtain both tumour surface and volume: Tumour surface=L×W(mm^2) Tumour volume=L×W^2×½(mm^3)
# (§1) Results were expressed as single values and/or as the mean±SD or median from each experimental group.
# A case-control study was performed with treated and control mice in order to determine whether differences between isomers and administration of placebo were present. […] The U-test of Mann Withney was chosen for being one of the better known non-parametrical tests, anyway, results for this test are equivalent both to those of Wilcoxon's sum of ranges and Kruskal-Wallis two-groups test.
# Due to the high dispersion of data, outlayers (animals beyond percentile 25 or above percentile 75 for tumour surface at day 25) were excluded of the study.
# [2] = test system: ASB XIV cells (pulmonary squamous cell carcinoma); assay: Effect of isomers and BLAS on in vivo tumour growth, ASB XIV tumours (Example 8); design: species or system Balb/c mice; conditions: 260 ng/mouse i.p. days 6, 7 and 14
# Excerpt: This assay was made in order to compare the effect of each stereoisomer on in vivo tumour growth in mice with the effect of the mixture of all of them challenged with ASB XIV tumours. The stereoisomers assayed were the same as in example 7 above plus a mixture of all of them (BLAS). The equipment (when needed), reagents, dose, vehicle and route and volume of administration were the same as in example 7.
# ASB XIV is a pulmonary squamous cell carcinoma originated in Balb/c mouse strain, and therefore syngeneic in mice with Balb/c genetic background.
# ASB XIV cells (CLS, Eppelheim, Germany) were maintained in vitro by serial passages every 3-4 days. Cultures were performed with RPMI medium medium (RPMI, 10% foetal calf serum, 2 mM L-glutamine, non essential aminoacids, 1 mM sodium pyruvate, 20 mM HEPES, 80 μg/mL gentamycin; all of them were purchased from Sigma, St. Louis, Mo., USA) by seeding 5×10^6 cells onto 75 cm^2 culture flasks. Tumour cells collected from 48 hour cultures upon trypsinization (Sigma, St. Louis, Mo., USA) were used as source of ASB XIV cells in the present example.
# • BLAS (mixture of isomers 1, 2, 3 and 4) at a concentration of 65 μg/mL in sterile physiological saline. Isomer 1 (9b) at a concentration of 65 μg/mL in sterile physiological saline. • Isomer 2 (9c) at a concentration of 65 μg/mL in sterile physiological saline. • Isomer 3 (9a) at a concentration of 65 μg/mL in sterile physiological saline. • Isomer 4 (9d) at a concentration of 65 μg/mL in sterile physiological saline. Placebo
# Tumours were established by subcutaneous inoculation in the right hind flank. Mice (Balb/c) were inoculated with 0.2 mL containing 2×10^5 viable ASB XIV cells. The day of subcutaneous inoculation will be considered Day 0 of the test.
# Mice were observed daily and the tumour size recorded twice a week. This was carried out by measuring two perpendicular diameters (d1/d2) with a calliper. These measures were used to obtain both tumour surface and volume: Tumour surface=d1×d2(mm^2) Tumour volume=d1×d2^2×½(mm^3)
# as §1
# A case-control study was performed with treated and control mice in order to determine whether differences between BLAS or each diferent stereoisomer and administration of placebo were present. […] The U-test of Mann Withney was chosen for being one of the better known non-parametrical tests, anyway, results for this test are equivalent both to those of Wilcoxon's sum of ranges and Kruskal-Wallis two-groups test.
# Due to the high dispersion of data, outlayers (animals beyond percentile 10 or above percentile 90 for tumour surface at day 33) were excluded of the study.
# [3] = day 11 after tumour inoculation
# [4] = day 12 after tumour inoculation
# [5] = day 15 after tumour inoculation
# [6] = day 19 after tumour inoculation
# [7] = day 22 after tumour inoculation
# [8] = day 26 after tumour inoculation
# [9] = day 29 after tumour inoculation
# [10] = day 33 after tumour inoculation
smiles,measurement,setting,value
"Br.N[C@@]1(C[n+]2ccccc2)C[C@H](C(=O)O)NC1=O.[Br-] (single isomer, unassigned; isomer 2) [isomer 2, 3R,5R-1-(3-Amino-5-carboxy-2-oxopyrrolidin-3-ylmethyl)pyridinium bromide hidrobromide]","Tumour surface, overall values (Mean)",[1]; day 0 after tumour inoculation,0 mm^2
same,"Tumour surface, overall values (Median)",[1]; day 0 after tumour inoculation,0 mm^2
same,"Tumour volume, overall values (Mean)",[1]; day 0 after tumour inoculation,0 mm^3
same,"Tumour volume, overall values (Median)",[1]; day 0 after tumour inoculation,0 mm^3
same,"Tumour surface, overall values (Median)",[1]; [3],0 mm^2
same,"Tumour volume, overall values (Median)",[1]; [3],0 mm^3
same,"Tumour surface, overall values (Median)",[1]; day 14 after tumour inoculation,9 mm^2
same,"Tumour surface, overall values (Mean)",[2]; day 0 after tumour inoculation,0 mm^2
same,"Tumour surface, overall values (Median)",[2]; day 0 after tumour inoculation,0 mm^2
same,"Tumour volume, overall values (Mean)",[2]; day 0 after tumour inoculation,0 mm^3
same,"Tumour volume, overall values (Median)",[2]; day 0 after tumour inoculation,0 mm^3
same,"Tumour surface, overall values (Mean)",[2]; day 8 after tumour inoculation,0 mm^2
same,"Tumour surface, overall values (Median)",[2]; day 8 after tumour inoculation,0 mm^2
same,"Tumour volume, overall values (Mean)",[2]; day 8 after tumour inoculation,0 mm^3
same,"Tumour volume, overall values (Median)",[2]; day 8 after tumour inoculation,0 mm^3
same,"Tumour surface, overall values (Mean)",[2]; [4],0.71 mm^2
same,"Tumour surface, overall values (Median)",[2]; [4],0 mm^2
same,"Tumour volume, overall values (Mean)",[2]; [4],1 mm^3
same,"Tumour volume, overall values (Median)",[2]; [4],0 mm^3
same,"Tumour surface, overall values (Mean)",[2]; [5],6.19 mm^2
same,"Tumour surface, overall values (Median)",[2]; [5],0 mm^2
same,"Tumour volume, overall values (Mean)",[2]; [5],12.68 mm^3
same,"Tumour volume, overall values (Median)",[2]; [5],0 mm^3
same,"Tumour surface, overall values (Mean)",[2]; [6],29.84 mm^2
same,"Tumour surface, overall values (Median)",[2]; [6],25 mm^2
same,"Tumour volume, overall values (Mean)",[2]; [6],102.44 mm^3
same,"Tumour volume, overall values (Median)",[2]; [6],62.5 mm^3
same,"Tumour surface, overall values (Mean)",[2]; [7],63.55 mm^2
same,"Tumour surface, overall values (Median)",[2]; [7],56 mm^2
same,"Tumour volume, overall values (Mean)",[2]; [7],292.39 mm^3
same,"Tumour volume, overall values (Median)",[2]; [7],196 mm^3
same,"Tumour surface, overall values (Mean)",[2]; [8],105.97 mm^2
same,"Tumour surface, overall values (Median)",[2]; [8],110 mm^2
same,"Tumour volume, overall values (Mean)",[2]; [8],603.66 mm^3
same,"Tumour volume, overall values (Median)",[2]; [8],550 mm^3
same,"Tumour surface, overall values (Mean)",[2]; [9],142.45 mm^2
same,"Tumour surface, overall values (Median)",[2]; [9],144 mm^2
same,"Tumour volume, overall values (Mean)",[2]; [9],913.90 mm^3
same,"Tumour volume, overall values (Median)",[2]; [9],864 mm^3
same,"Tumour surface, overall values (Mean)",[2]; [10],188.87 mm^2
same,"Tumour surface, overall values (Median)",[2]; [10],210 mm^2
same,"Tumour volume, overall values (Mean)",[2]; [10],1377.02 mm^3
same,"Tumour volume, overall values (Median)",[2]; [10],1436.5 mm^3
